In US10202361B2, “Pyridazinones as herbicides” (E I DU PONT DE NEMOURS AND COMPANY, priority 2014, dated 2019):

Columns and labels:
Test in all cases: Test D pre-/postemergence controlled growth environment herbicide test
Type in all cases: in vivo
Conditions in all cases: scale 0 to 100
[1] = system: barley, winter (winter barley, Hordeum vulgare)
Description: (§1) Seeds of plant species selected from bluegrass (annual bluegrass, Poa annua), blackgrass (Alopecurus myosuroides), canarygrass (Phalaris minor), chickweed (common chickweed, Stellaria media), galium (catchweed bedstraw, Galium aparine), downy bromegrass (Bromus tectorum), field poppy (Papaver rhoeas), field violet (Viola arvensis), foxtail, green (green foxtail, Setaria viridis), deadnettle (henbit deadnettle, Lamium amplexicaule), ryegrass, Italian (Italian ryegrass, Lolium multiflorum), kochia (Kochia scoparia), lambsquarters (Chenopodium album), oilseed rape (Brassica napus), pigweed (Amaranthus retroflexus), chamomile (scentless chamomile, Matricaria inodora), Russian thistle (Salsola kali), speedwell (bird's-eye speedwell, Veronica persica), barley, spring (spring barley, Hordeum vulgare), wheat, spring (spring wheat, Triticum aestivum), buckwheat, wild (wild buckwheat, Polygonum convolvulus), mustard, wild (wild mustard, Sinapis arvensis), oat, wild (wild oat, Avena fatua), radish, wild (wild radish, Raphanus raphanistrum), windgrass (Apera spica-venti), barley, winter (winter barley, Hordeum vulgare), and wheat, winter (winter wheat, Triticum aestivum) were planted into a silt loam soil and treated preemergence with test chemicals formulated in a non-phytotoxic solvent mixture which included a surfactant.
(§2) At the same time, these species were planted in pots containing Redi-Earth® planting medium (Scotts Company, 14111 Scottslawn Road, Marysville, Ohio 43041) comprising spaghnum peat moss, vermiculite, wetting agent and starter nutrients and treated with postemergence applications of the test chemicals formulated in the same manner. Plants ranged in height from 2 to 18 cm (1- to 4-leaf stage). Treated plants and controls were maintained in a controlled growth environment for 14 to 21 d after which time all species were compared to controls and visually evaluated. Plant response ratings, summarized in Table D, are based on a scale of 0 to 100 where 0 is no effect and 100 is complete control. A dash (-) response means no test result.

[2] = system: bluegrass (annual bluegrass, Poa annua)
Description: as §1, §2

kochia (Kochia scoparia) = system: kochia (Kochia scoparia)
Description: as §1, §2

[3] = system: canarygrass (Phalaris minor)
Description: as §1, §2

[4] = system: chickweed (common chickweed, Stellaria media)
Description: as §1, §2

[5] = system: wheat, spring (spring wheat, Triticum aestivum)
Description: as §1, §2

[6] = system: oat, wild (wild oat, Avena fatua)
Description: as §1, §2

[7] = system: pigweed (Amaranthus retroflexus)
Description: as §1, §2

[8] = system: mustard, wild (wild mustard, Sinapis arvensis)
Description: as §1, §2

[9] = system: barley, spring (spring barley, Hordeum vulgare)
Description: as §1, §2

[10] = system: ryegrass, Italian (Italian ryegrass, Lolium multiflorum)
Description: as §1, §2

Measured: Plant response rating

Cc1cc(=O)n(-c2ccc(C(F)(F)F)cc2)nc1Cc1ccnc(C(F)(F)F)c1 [Compound 2, 5-methyl-2-[4-(trifluoromethyl)phenyl]-6-[[2-(trifluoromethyl)-4-pyridinyl]methyl]-3(2H)-pyridazinone]
30: [1]; Preemergence, 125 g ai/ha | [1]; Preemergence, 250 g ai/ha | [2]; Postemergence, 500 g ai/ha | [2]; Preemergence, 250 g ai/ha | kochia (Kochia scoparia); Preemergence, 62 g ai/ha | [4]; Postemergence, 31 g ai/ha | [5]; Preemergence, 250 g ai/ha | [6]; Postemergence, 500 g ai/ha | [7]; Postemergence, 250 g ai/ha | [7]; Postemergence, 500 g ai/ha | [7]; Preemergence, 31 g ai/ha | [10]; Preemergence, 250 g ai/ha
70: kochia (Kochia scoparia); Postemergence, 62 g ai/ha | [4]; Postemergence, 125 g ai/ha | [7]; Preemergence, 125 g ai/ha | [8]; Postemergence, 62 g ai/ha
10: [1]; Postemergence, 31 g ai/ha | [2]; Postemergence, 31 g ai/ha | [2]; Preemergence, 125 g ai/ha | [5]; Postemergence, 31 g ai/ha | [5]; Postemergence, 62 g ai/ha | [5]; Postemergence, 125 g ai/ha | [6]; Postemergence, 31 g ai/ha | [6]; Postemergence, 62 g ai/ha | [6]; Postemergence, 125 g ai/ha | [8]; Postemergence, 31 g ai/ha | [9]; Postemergence, 31 g ai/ha | [9]; Postemergence, 62 g ai/ha | [9]; Postemergence, 125 g ai/ha | [10]; Postemergence, 62 g ai/ha
80: kochia (Kochia scoparia); Postemergence, 125 g ai/ha | [6]; Preemergence, 250 g ai/ha | [6]; Preemergence, 500 g ai/ha | [8]; Postemergence, 125 g ai/ha
75: [4]; Postemergence, 250 g ai/ha
20: [1]; Postemergence, 250 g ai/ha | [2]; Postemergence, 125 g ai/ha | [2]; Postemergence, 250 g ai/ha | kochia (Kochia scoparia); Preemergence, 31 g ai/ha | [3]; Postemergence, 31 g ai/ha | [3]; Postemergence, 62 g ai/ha | [3]; Postemergence, 125 g ai/ha | [3]; Postemergence, 250 g ai/ha | [5]; Postemergence, 500 g ai/ha | [7]; Postemergence, 31 g ai/ha | [7]; Postemergence, 62 g ai/ha | [7]; Postemergence, 125 g ai/ha | [10]; Postemergence, 250 g ai/ha
35: [6]; Preemergence, 125 g ai/ha | [10]; Preemergence, 500 g ai/ha
100: [2]; Preemergence, 500 g ai/ha | kochia (Kochia scoparia); Preemergence, 125 g ai/ha | kochia (Kochia scoparia); Preemergence, 250 g ai/ha | kochia (Kochia scoparia); Preemergence, 500 g ai/ha | [4]; Postemergence, 500 g ai/ha | [4]; Preemergence, 31 g ai/ha | [4]; Preemergence, 62 g ai/ha | [4]; Preemergence, 125 g ai/ha | [4]; Preemergence, 250 g ai/ha | [4]; Preemergence, 500 g ai/ha | [7]; Preemergence, 500 g ai/ha | [8]; Postemergence, 250 g ai/ha | [8]; Postemergence, 500 g ai/ha | [8]; Preemergence, 62 g ai/ha | [8]; Preemergence, 125 g ai/ha | [8]; Preemergence, 250 g ai/ha | [8]; Preemergence, 500 g ai/ha
50: [1]; Preemergence, 500 g ai/ha | [5]; Preemergence, 500 g ai/ha | [9]; Preemergence, 500 g ai/ha
40: kochia (Kochia scoparia); Postemergence, 31 g ai/ha | [3]; Preemergence, 125 g ai/ha | [3]; Preemergence, 250 g ai/ha | [4]; Postemergence, 62 g ai/ha
60: [7]; Preemergence, 62 g ai/ha
15: [1]; Postemergence, 62 g ai/ha | [1]; Postemergence, 125 g ai/ha | [2]; Postemergence, 62 g ai/ha | [5]; Postemergence, 250 g ai/ha | [5]; Preemergence, 125 g ai/ha | [6]; Postemergence, 250 g ai/ha | [9]; Postemergence, 250 g ai/ha | [10]; Postemergence, 125 g ai/ha
0: [1]; Preemergence, 31 g ai/ha | [1]; Preemergence, 62 g ai/ha | [2]; Preemergence, 31 g ai/ha | [2]; Preemergence, 62 g ai/ha | [3]; Preemergence, 31 g ai/ha | [5]; Preemergence, 31 g ai/ha | [5]; Preemergence, 62 g ai/ha | [6]; Preemergence, 31 g ai/ha | [6]; Preemergence, 62 g ai/ha | [8]; Preemergence, 31 g ai/ha | [9]; Preemergence, 31 g ai/ha | [9]; Preemergence, 62 g ai/ha | [9]; Preemergence, 125 g ai/ha | [10]; Postemergence, 31 g ai/ha | [10]; Preemergence, 31 g ai/ha | [10]; Preemergence, 62 g ai/ha
25: [1]; Postemergence, 500 g ai/ha | [3]; Postemergence, 500 g ai/ha | [3]; Preemergence, 62 g ai/ha | [9]; Postemergence, 500 g ai/ha | [9]; Preemergence, 250 g ai/ha | [10]; Postemergence, 500 g ai/ha | [10]; Preemergence, 125 g ai/ha
85: kochia (Kochia scoparia); Postemergence, 250 g ai/ha | kochia (Kochia scoparia); Postemergence, 500 g ai/ha | [3]; Preemergence, 500 g ai/ha | [7]; Preemergence, 250 g ai/ha
